Experiment [1] addresses T1, PAR2 (Homo sapiens, UniProt P55085).
T1 construct: Human embryonic kidney cell line HEK293 cells cultured using DMEM culture medium; endogenous in cells; host or cells: HEK293
T1 sequence (P55085 26-397): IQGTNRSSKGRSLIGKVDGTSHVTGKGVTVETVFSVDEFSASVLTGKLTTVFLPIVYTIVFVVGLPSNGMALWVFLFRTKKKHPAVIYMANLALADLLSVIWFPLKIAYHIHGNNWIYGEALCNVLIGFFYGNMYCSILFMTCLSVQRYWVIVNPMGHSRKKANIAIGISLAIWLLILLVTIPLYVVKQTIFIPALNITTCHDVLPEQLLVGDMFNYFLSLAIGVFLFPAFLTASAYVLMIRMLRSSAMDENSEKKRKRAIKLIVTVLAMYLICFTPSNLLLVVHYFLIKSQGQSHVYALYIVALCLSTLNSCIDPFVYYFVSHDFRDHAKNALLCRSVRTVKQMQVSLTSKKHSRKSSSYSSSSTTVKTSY
Description: Intracellular calcium concentration measurement (trypsin-induced calcium elevation, FDSS6000). It is filed as cell-based. To be noted: HEK293 cells, trypsin 5 U/mL as agonist, test compound added 30 min before measurement; read-out: Inhibitory activity on intracellular calcium elevation (IC50 (nM)). The text has this: In the present specification, examples of the measurement method for the PAR2 inhibitory activity include measurement method for a concentration elevation of intracellular calcium; measurement method for a production increase of intracellular inositol trisphosphate; measurement method for an increase in intracellular protein phosphorylation by protein kinase C and MAP kinase; and measurement method for a production amount or a release amount of inflammation-related physiologically active substances such as cytokine, chemokine, prostaglandin and nitric monoxide. Examples of the measurement method for an elevation of intracellular calcium concentration include a method wherein a calcium-binding fluorescent probe is allowed to be incorporated in advance into a cultured cell line or an animal-derived isolated cell having PAR2, or a cell in which PAR2 is artificially expressed, a protease having the PAR2 activity function such as trypsin or a PAR2 agonist (synthetic peptides such as SLIGKV-NH2 (SEQ ID NO: 1) and SLIGRL-NH2 (SEQ ID NO: 2) is added to activate PAR2 whereby fluctuating intracellular calcium concentrations are detected as changes in the fluorescent signal. Alternatively, it is also possible to measure an intracellular calcium concentration by determining the quantity of a fluorescence intensity produced in proportion to the calcium concentration using a calcium-binding luminescent protein overexpressing cell line such as Aequorin. Specifically, examples include the methods described in Test Examples of the present specification.
Human embryonic kidney cell line HEK293 cells cultured using DMEM culture medium (Invitrogen) with 3% fetal bovine serum (3% FBS)-added was prepared to have a concentration of 2×10^5 cells/mL, and plated in a type I collagen-coated 384-well black plate (clear bottom) (Greiner) so as to be 25 μL/well and cultured in a CO2 incubator overnight. FLIPR Calcium Assay Kit (Molecular Devices) prepared with Hanks-20 mM Hepes buffer (pH 7.4) was added to the cells so as to be 25 μL/well and cultured in the CO2 incubator for 1 hour. Trypsin (SIGMA-ALDRICH, catalog number: T8816, Enzyme Commission Number 3.4.21.4) prepared so as to be 5 U/mL as final concentration (BAEE unit) with Hanks-20 mM Hepes buffer (pH 7.4) was added to a 384-well deep well polypropylene plate (Greiner) to be an agonist reagent plate. Thirty minutes before the measurement using FDSS6000 (Hamamatsu Photonics K.K.), a test compound prepared with Hanks-20 mM Hepes buffer (pH 7.4) was added to the cell so as to be 8 μL/well. The cell plate to which the test compound was added and the reagent plate were set on FDSS6000, 22 μL/well of the agonist solution was added from the reagent plate, and the change in intracellular calcium concentration was measured with a CCD camera. The measurement was carried out at 37° C. for 120 seconds and the addition of reagent from the reagent plate to the cell plate was carried out using a built-in 384-well automatic dispenser of FDSS6000.
Note that Reference Example 1 in Table 3 is the compound represented by formula (XIX) synthesized in the above Reference Example 1 (hereinafter, also referred to as Compound (XIX)). Additionally, the “Comparative Compound” in Table 3 is the compound described in Patent Literature 4 represented by the following formula (XX) (I-343; hereinafter, also referred to as Compound (XX)).
For orientation: Calcium flux is commonly read through the fluorescence of an indicator in the cells.

Experiment [2] concerns the target T2, PAR2 (Mus musculus, UniProt P55086).
T2 construct: orally administered to C57BL/6J male mice (Charles River), 6-10 weeks of age; tissue Charles River; host or cells: Living C57BL/6J male mice (in vivo; saliva secretion)
T2 sequence (P55086 26-399): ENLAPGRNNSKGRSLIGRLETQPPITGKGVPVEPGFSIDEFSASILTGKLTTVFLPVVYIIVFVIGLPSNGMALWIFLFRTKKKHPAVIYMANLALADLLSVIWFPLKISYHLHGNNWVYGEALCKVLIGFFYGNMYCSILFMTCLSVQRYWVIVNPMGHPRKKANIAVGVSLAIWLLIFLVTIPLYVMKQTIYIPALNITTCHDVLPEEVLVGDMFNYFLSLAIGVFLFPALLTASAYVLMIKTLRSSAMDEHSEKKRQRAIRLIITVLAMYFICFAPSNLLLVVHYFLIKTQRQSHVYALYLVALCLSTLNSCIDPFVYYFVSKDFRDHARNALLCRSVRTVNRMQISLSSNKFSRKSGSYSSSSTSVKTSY
Description: Measurement of PAR2 agonist (SLIGRL-NH2)-induced salivation in mouse. It is filed as in vivo. Conditions: C57BL/6J male mice, 0.3 mg/mL solution 10 mL/kg orally, 60 min before SLIGRL-NH2 i.p., saliva collected 10 min. The protocol:
The test compound was added to a 0.5% carboxymethyl cellulose solution to which 2% DMSO was added, so as to have the final concentration of 0.3 mg/mL, thereby preparing an administration solution containing the test compound. The administration solution containing the test compound (10 mL/kg) was orally administered to C57BL/6J male mice (Charles River), 6-10 weeks of age, using an oral sonde and a syringe. Forty-five minutes after the administration of the test compound, 10 mL/kg of a 20% (w/v) urethane solution was intraperitoneal administered to the mice which were then anesthetized. Sixty minutes after the administration of the test compound, 10 mL/kg of a 0.1 mg/mL SLIGRL-NH2 (SEQ ID NO: 2) solution was intraperitoneally administered as the PAR2 agonist and a cotton ball was immediately placed in the oral cavity of the mouse to collect the saliva. Ten minutes after the administration of the PAR2 agonist, the cotton ball was removed and weighed to measure the amount of saliva secreted.
Note that Reference Example 1 in Table 4 is Compound (XIX). Additionally, Comparative Compound in Table 4 is Compound (XX).

As for `Cc1cccc(C)c1N(C)c1cc(C2CCC(C)(C)CC2)nc2cc(C(=O)N3CC[C@@H](CC(=O)O)[C@@H](F)C3)nn12` (relative stereo) [Example 3, 2-((3R*,4S*)-1-(5-(4,4-dimethylcyclohexyl)-7-((2,6-dimethylphenyl)(methyl)amino)pyrazolo[1,5-a]pyrimidine-2-carbonyl)-3-fluoropiperidin-4-yl) acetic acid], the half-inhibitory concentration (IC50) (as a rule, the concentration that inhibits the measured activity by half) on PAR2 [1] was determined as 8.73 nM. In addition, at PAR2 [2], the “Inhibitory activity on the PAR2-dependent saliva secretion (%)” value (from here on “Inhibitory activity … (%)”) was determined as 86.7%.
On to `CO[C@H]1CN(C(=O)c2cc3nc(-c4ccc(F)c(Cl)c4)cc(N(C)c4c(C)cccc4C)n3n2)CC[C@H]1CC(=O)O` (relative stereo) [Example 4, 2-((3R*,4S*)-1-(5-(3-chloro-4-fluorophenyl)-7-((2,6-dimethylphenyl)(methyl)amino)pyrazolo[1,5-a]pyrimidine-2-carbonyl)-3-methoxypiperidin-4-yl)acetic acid], for which the IC50 at PAR2 [1] was found to be 7.32 nM. In addition, the “Inhibitory activity … (%)” value at PAR2 [2] turned out to be 87.1%.
For `CO[C@H]1CN(C(=O)c2cc3nc(-c4ccc(Cl)c(F)c4)cc(N(C)c4c(C)cccc4Cl)n3n2)CC[C@H]1CC(=O)O` (relative stereo) [Example 11, 2-((3R*,4S*)-1-(5-(4-chloro-3-fluorophenyl)-7-((2-chloro-6-methylphenyl)(methyl)amino)pyrazolo[1,5-a]pyrimidine-2-carbonyl)-3-methoxypiperidin-4-yl)acetic acid], on PAR2 [1], the IC50 is 6.88 nM. Also, the “Inhibitory activity … (%)” value on PAR2 [2] was 97.8%.
With `CO[C@H]1CN(C(=O)c2cc3nc(-c4cc(F)c(Cl)c(F)c4)cc(N(C)c4c(C)cccc4Cl)n3n2)CC[C@H]1CC(=O)O` (relative stereo) [Example 12, 2-((3R*,4S*)-1-(5-(4-chloro-3,5-difluorophenyl)-7-((2-chloro-6-methylphenyl)(methyl)amino)pyrazolo[1,5-a]pyrimidine-2-carbonyl)-3-methoxypiperidin-4-yl)acetic acid], the IC50 on PAR2 [1] worked out at 4.77 nM. Besides, the “Inhibitory activity … (%)” value at PAR2 [2] is listed as 98.8%.
For `CN(c1ccccc1Cl)c1cc(-c2cc(F)c(Cl)c(F)c2)nc2cc(C(=O)N3CC[C@@H](CC(=O)O)[C@@H](F)C3)nn12` (relative stereo) [Example 14, 2-((3R*,4S*)-1-(5-(4-chloro-3,5-difluorophenyl)-7-((2-chlorophenyl)(methyl)amino)pyrazolo[1,5-a]pyrimidine-2-carbonyl)-3-fluoropiperidin-4-yl)acetic acid] the same measures were 5.08 nM and 92.5%.
Consider `CCCN(c1cc(-c2cc(F)c(Cl)c(F)c2)nc2cc(C(=O)N3CC[C@@H](CC(=O)O)[C@@H](C)C3)nn12)C(C)C` (relative stereo) [Example 18, 2-((3R*,4S*)-1-(5-(4-chloro-3,5-difluorophenyl)-7-(isopropyl(propyl)amino)pyrazolo[1,5-a]pyrimidine-2-carbonyl)-3-methylpiperidin-4-yl)acetic acid], for which the IC50 on PAR2 [1] amounted to 7.38 nM. Further, the “Inhibitory activity … (%)” value at PAR2 [2] was found to be 95.1%.
For `Cc1n[nH]c(C(=O)N2CCN(C(=O)c3cn4nc(-c5ccc(F)cc5)cc(C(C)(C)C)c4n3)C(C)(C)C2)n1` [Comparative Compound, reference compound], on PAR2 [1], the IC50 is 24.2 nM. In addition, the “Inhibitory activity … (%)” value at PAR2 [2] stood at 98.0%.
Regarding `CC(C)CN(c1cc(-c2cc(F)c(F)c(F)c2)nc2cc(C(=O)N(C)[C@H](C)CC(=O)O)nn12)[C@H](C)C(C)C` [Example 9, (R)-3-(7-(isobutyl((R)-3-methylbutan-2-yl)amino)-N-methyl-5-(3,4,5-trifluorophenyl)pyrazolo[1,5-a]pyrimidine-2-carboxamide)butanoic acid], on PAR2 [1], the IC50 turned out to be 4.9 nM. At PAR2 [2], the “Inhibitory activity … (%)” value amounted to 96.0%.
On to `CN(c1c(F)cccc1Cl)c1cc(-c2cc(F)c(F)c(F)c2)nc2cc(C(=O)N3CCC(CC(=O)O)CC3)nn12` [Example 17, 2-(1-(7-((2-chloro-6-fluorophenyl)(methyl)amino)-5-(3,4,5-trifluorophenyl)pyrazolo[1,5-a]pyrimidine-2-carbonyl)piperidin-4-yl)acetic acid], for which the IC50 at PAR2 [1] turned out to be 3.27 nM. For the same compound, at PAR2 [2], the “Inhibitory activity … (%)” value turned out to be 94.9%.

These data come from patent publication US10227349B2, “Pyrazolo[1,5-a]pyrimidine compound” (Eisai R&D Management Co., Ltd., priority 2016, dated 2019).
